Experimental data reported in patent US7666901B2, “Analogs of 17-hydroxywortmannin as PI3K inhibitors” (Wyeth, priority 2004, dated 2010).

How the values were obtained:
[1] = system: HER2/Neu-overexpressing MDA361-DYT2 breast tumor cells; experiment: Tumor cell growth assay, HKI-272 and combination, MDA361-DYT2; type: cell-based, human; details: in vitro and in vivo
Experimental: Human tumor cell are all obtained from ATCC, and are cultured using standard cell culture methods. Cells are plated in 96-well culture plates at 1000 to 3000 cells per well. One day following plating, cells are treated with various doses of PI3K inhibitor Compound 4 or Compound 5 alone or with a low constant dose of MEK inhibitor 2-(2-chloro-4-iodoanilino)-N-(cycloprorylmethoxy-3,4-difluobenzamide) (1 μg/ml) or UO126 (5 μg/ml). UO126 is also known as 1,4-diamino-2,3-dicyano-1,4-bis[2-aminophenylthio]butadiene. In some experiments, cells are treated alone with various doses of the MEK inhibitor (2-(2-chloro-4-iodoanilino)-N-(cycloprorylmethoxy-3,4-difluobenzamide)), or HER2/neu inhibitor HKI-272, or mTOR inhibitor CCI-779, or with a low constant dose of Compound 4 (0.1 μg/ml). […] Three days after drug treatment, viable cell densities are determined by metabolic conversion (by viable cells) of the dye MTS, an established cell proliferation assay. […] The MTS assay results are read in a 96-well plate reader by measuring absorbance at 490 nm. The effect of each treatment is calculated as percent of control growth relative to the vehicle DMSO-treated cells grown in the same culture plate. […]

[2] = system: phosphorylated Her2/Neu, ERK and AKT pathway markers in MDA361-DYT2; experiment: Western blot analysis of pathway markers, MDA361-DYT2; type: cell-based, human; details: 0.1 μg/ml
Experimental: Cells are plated in 6-well culture plates. 24 hr later, cells are treated with indicated single agents or combined agents for 16 hr in full growth media. Protein lysates are prepared for Western blot analysis as previously described in Yu, K., et al., Endocr. Relat. Cancer. 2001 September :8(3) 249-58.

## CCOc1cc2ncc(C#N)c(Nc3ccc(OCc4ccccn4)c(Cl)c3)c2cc1NC(=O)/C=C/CN(C)C [HKI-272, (E)-N-{4-[3-chloro-4-(2-pyridinylmethoxy)anilino]-3-cyano-7-ethoxy-6-quinolinyl}-4-(dimethylamino)-2-butenamide]
[1]
  sensitivity of MDA361-DYT2 to single agent: resistant
[2]
  effect on AKT pathway markers: little effect
  phosphorylated forms of Her2/Neu and ERK: completely inhibited
